Results taken from patent publication US7236891B2, “Methods of determining polypeptide structure and function” (Queen's University at Kingston, priority 2001, dated 2007).
“Also recorded” adds a separate entry of the source. Where two headings read alike, the source gives them in different places. Each block holds one compound with its values, some of them ahead of it. Square brackets hold non-standard residues; d marks the D form. Peptide text beside a SMILES is read from it. Nle = CCCC[C@H](N)C(=O)O

What was measured:
[1] = target: T1, μI-II (domain I-II construct from μ-calpain) (Rattus norvegicus, UniProt P97571); assay: Proteolytic activity of μI-II against synthetic peptide substrate SLY-MCA; assay type: biochemical; conditions: for inhibition of μI-II protease activity: qualitative, data not shown
T1 construct: extended from residue 29 (MG^29RHENA-) to residue 356; added N-terminal Met (N); made in house; host or cells: E. coli BL21 (DE3)
T1 sequence (P97571 29-356): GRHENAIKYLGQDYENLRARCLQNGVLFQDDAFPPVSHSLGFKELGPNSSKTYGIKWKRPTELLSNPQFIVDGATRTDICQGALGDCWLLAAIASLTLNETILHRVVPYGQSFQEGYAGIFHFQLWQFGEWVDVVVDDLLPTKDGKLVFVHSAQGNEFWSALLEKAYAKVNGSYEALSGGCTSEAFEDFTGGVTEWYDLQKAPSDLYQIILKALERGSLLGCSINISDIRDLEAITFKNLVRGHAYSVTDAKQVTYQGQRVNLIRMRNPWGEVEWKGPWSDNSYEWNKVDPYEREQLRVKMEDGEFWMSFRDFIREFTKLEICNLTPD
Description: (§1) Proteolytic digestion of the C105S m-calpain heterodimer was performed at 22° C. in a final volume of less than 150 μL, in 50 mM HEPES pH 7.6, 1 mg/mL calpain, 0.15 mg/mL μI-II, without divalent cations, or with 1 mM CaCl2 or 1 mM MgCl2. Autolysis of μI-II was performed under the same conditions but instead of the C105S m-calpain substrate, 2.5 mg/mL of μI-II was used. The reaction was stopped by the addition of 2×SDS sample buffer. At specific time intervals aliquots were removed and analyzed by SDS-PAGE using a 9% gel. Control reactions lacked the protease domain I–II. The activity of μI-II against the peptide substrate SLY-MCA (Sigma) was also tested in 50 mM HEPES pH 7.6, 200 mM NaCl, 1 mM DTT, 5–30 mM divalent cation (CaCl2, MgCl2, MnCl2, or ZnCl2), 0.75 mM SLY-MCA, 2.5 μM μI-II, in a final volume of 3 mL. MCA release was monitored in a LS50B Perkin Elmer luminescence spectrometer set with excitation and the emission wavelengths at 360 nm and 460 nm, respectively. Steady-state kinetics analysis was performed under the same buffer conditions but in the presence of 0.5 mM CaCl2, by varying SLY-MCA concentration from 0.02–1.5 mM. The steady-state parameters (kcat and KM) were obtained from the Michaelis-Menten plot.

μI-II (C115S) [2] = target: T2, μI-II (C115S) (Rattus norvegicus, UniProt P97571, C115S); assay: Intrinsic tryptophan fluorescence of μI-II during Ca2+ titration; assay type: binding; conditions: for ability to substitute for CaCl2 in the intrinsic tryptophan fluorescence change: concentrations up to 30 mM
T2 construct: extended from residue 29 (MG^29RHENA-) to residue 356; added N-terminal Met (N); made in house; host or cells: E. coli BL21 (DE3)
T2 sequence (P97571 29-356 C115S): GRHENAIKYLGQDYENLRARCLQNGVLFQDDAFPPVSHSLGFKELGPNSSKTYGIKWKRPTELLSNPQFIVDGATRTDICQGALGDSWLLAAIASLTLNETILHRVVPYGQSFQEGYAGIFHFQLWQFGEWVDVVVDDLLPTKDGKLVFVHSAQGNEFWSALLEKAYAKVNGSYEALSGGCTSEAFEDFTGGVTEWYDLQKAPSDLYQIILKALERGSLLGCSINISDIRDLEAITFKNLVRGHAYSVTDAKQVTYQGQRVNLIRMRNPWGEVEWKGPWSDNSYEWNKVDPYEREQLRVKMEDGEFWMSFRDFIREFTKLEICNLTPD
Description: Intrinsic tryptophan fluorescence measurements were performed in a Perkin Elmer LS50B fluorescence spectrophotometer at 22° C. using a stirrer-adapted 4 mL cuvette (Helmma). Excitation and emission wavelength were set at 280 nm and 340 nm, respectively. The reaction buffer was the same as that used for activity measurements against SLY-MCA, and the protein concentration was 0.65 μM. […] CaCl2 (50 mM) dissolved in the reaction buffer was pumped continuously (4 μL/min, Harvard Apparatus pump 22) using a 250 μL microsyringe (Hamilton-microliter 1000 series gastight) through a tube into the cuvette. The reaction mixture was vigorously mixed using the internal magnetic stirrer of the fluorimeter. The fluorescence intensity was corrected for dilution, and the normalised data was fitted to the Hill equation y=x^n/k^n+x^n), where y is the fraction of maximum intensity change, k=[Ca^2+]0.5 (the value of [Ca^2+] at which half-maximum intensity change is observed, n is the Hill coefficient, and x is [Ca^2+]. Intrinsic tryptophan fluorescence measurements were also performed under the same buffer conditions but substituting for CaCl2, either MgCl2, MnCl2, or ZnCl2 up to 30 mM. To test the aggregation state of the domain I–II constructs, relative 90° light scattering was monitored under the same reaction conditions by setting both the excitation and emission wavelength of the spectrophotometer to 320 nm. No significant aggregation was detected even at the highest CaCl2 concentration (30 mM) tested.

intact μ-calpain = target: T3, intact μ-calpain (Homo sapiens, UniProt P07384); conditions: reported values; read-out: Ca2+ for half-maximal activation of intact μ-calpain; cited from earlier work
T3 sequence (P07384 1-714): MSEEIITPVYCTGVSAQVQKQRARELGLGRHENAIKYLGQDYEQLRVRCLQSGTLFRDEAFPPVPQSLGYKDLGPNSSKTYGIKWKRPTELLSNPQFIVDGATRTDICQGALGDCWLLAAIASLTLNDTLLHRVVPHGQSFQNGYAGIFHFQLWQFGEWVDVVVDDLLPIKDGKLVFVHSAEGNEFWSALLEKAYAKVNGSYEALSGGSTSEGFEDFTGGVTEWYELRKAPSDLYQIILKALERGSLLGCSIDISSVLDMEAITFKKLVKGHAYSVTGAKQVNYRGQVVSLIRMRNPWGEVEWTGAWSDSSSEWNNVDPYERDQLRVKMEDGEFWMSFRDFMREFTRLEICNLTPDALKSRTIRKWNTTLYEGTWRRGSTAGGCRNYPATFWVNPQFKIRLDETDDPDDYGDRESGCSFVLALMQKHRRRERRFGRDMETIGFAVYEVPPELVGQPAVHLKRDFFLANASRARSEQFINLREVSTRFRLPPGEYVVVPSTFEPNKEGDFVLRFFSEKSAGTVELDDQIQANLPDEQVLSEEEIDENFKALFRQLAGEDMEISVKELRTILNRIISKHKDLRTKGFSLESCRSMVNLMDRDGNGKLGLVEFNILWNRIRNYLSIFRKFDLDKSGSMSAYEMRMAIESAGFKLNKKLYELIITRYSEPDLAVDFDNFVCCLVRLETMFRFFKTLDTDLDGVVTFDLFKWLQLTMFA
T3 sequence (P04632 1-268 partner): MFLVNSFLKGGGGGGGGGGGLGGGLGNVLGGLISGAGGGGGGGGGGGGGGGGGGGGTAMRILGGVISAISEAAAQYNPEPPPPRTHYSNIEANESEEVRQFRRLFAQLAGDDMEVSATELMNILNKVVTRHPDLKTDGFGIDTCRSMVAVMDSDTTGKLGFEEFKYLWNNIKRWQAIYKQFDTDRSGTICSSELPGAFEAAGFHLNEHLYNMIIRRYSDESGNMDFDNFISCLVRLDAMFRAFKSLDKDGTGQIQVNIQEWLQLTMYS

μI-II (C115S) [3] = target: T2, μI-II (C115S); assay: Intrinsic tryptophan fluorescence of μI-II during Ca2+ titration; assay type: binding; conditions: read-out: Ca2+ requirement for activation of μI-II
μI-II [4] = target: T4, μI-II (Rattus norvegicus, UniProt P97571); assay: Proteolysis of inactive C105S m-calpain heterodimer by μI-II; assay type: biochemical; conditions: 1 mM MgCl2
T4 construct: extended from residue 29 (MG^29RHENA-) to residue 356; added N-terminal Met (N); made in house; host or cells: E. coli BL21 (DE3)
T4 sequence (P97571 29-356): as the sequence (P97571 29-356) above
Description: as §1

μI-II [5] = target: T4, μI-II; assay: Autolysis of μI-II in 1 mM CaCl2 (SDS-PAGE); conditions: 1 mM CaCl2, 20 hours
Description: as §1

SLY-MCA hydrolysis by E64-reacted μI-II (μI-II-E64) ([1]; C115 μI-II reacted with E64 in 5 mM CaCl2): unable to hydrolyse SLY-MCA | inhibition of μI-II protease activity [1]: abolished; also recorded: inhibited | effect on W298 fluorescence of μI-II (μI-II (C115S) [2]; μI-II-E64 complex): quenching
Compound: CC(C)C[C@H](NC(=O)[C@H]1O[C@@H]1C(=O)O)C(=O)NCCCCN=C(N)N (relative stereo) [E64, trans-epoxysuccinyl-L-leucilamido(4-guanidino)-butane]

CaCl2 concentration at which the fluorescence increase was >99% complete (μI-II (C115S) [2]): ~500 µM | CaCl2 concentration at which the fluorescence increase was first noticeable (μI-II (C115S) [2]): ~5 µM | total increase in the fluorescence intensity (μI-II (C115S) [2]; CaCl2 titration): ~36.8±0.5% | Hill coefficient (μI-II (C115S) [2]; CaCl2 titration fitted to the Hill equation): 2.72±0.42 | EC50 (μI-II (C115S) [2]; CaCl2 titration, excitation 280 nm, emission 340 nm, read-out: half-maximal change in intrinsic tryptophan fluorescence): 41.8 ± 7.1 µM | EC50 (μI-II (C115S) [3]): ~40 µM
Compound: [Ca+2].[Cl-].[Cl-] [CaCl2]
EC50 (intact μ-calpain): 5 to 50 µM

Compound: O=C(O)CN(CCN(CC(=O)O)CC(=O)O)CC(=O)O [EDTA, reference compound]
reversal of the Ca2+-induced fluorescence change (μI-II (C115S) [2]; data not shown): completely reversed

proteolysis of C105S m-calpain by μI-II when substituted for Ca2+ (μI-II [4]): no proteolysis | ability to substitute for CaCl2 in the intrinsic tryptophan fluorescence change (μI-II (C115S) [2]): unable to substitute
Compound: [Cl-].[Cl-].[Mg+2] [MgCl2]

ability to substitute for CaCl2 in the intrinsic tryptophan fluorescence change (μI-II (C115S) [2]): unable to substitute
Compound: [Cl][Mn][Cl] [MnCl2]

ability to substitute for CaCl2 in the intrinsic tryptophan fluorescence change (μI-II (C115S) [2]): unable to substitute
Compound: [Cl-].[Cl-].[Zn+2] [ZnCl2]

Compound: CCCC[C@@H](C=O)NC(=O)[C@H](CC(C)C)NC(=O)[C@H](CC(C)C)NC(C)=O [calpain inhibitor I] (Ac-Leu-Leu-[Nle]-aldehyde)
inhibition of μI-II protease activity [1]: abolished; also recorded: inhibited

Compound: CC(=O)N[C@@H](CC(C)C)C(=O)N[C@@H](CC(C)C)C(=O)N[C@H](C=O)CCCNC(=N)N [leupeptin]
inhibition of μI-II protease activity [1]: abolished; also recorded: inhibited

μI-II still present after autodigestion (μI-II [5]): Over 50%
Compound: μI-II: recombinant protease core, domains I and II (residues 29-356) of rat μ-calpain with C-terminal His tag
catalytic efficiency relative to the full enzyme ([1]; SLY-MCA digestion): ~2% | decrease in turnover (kcat) compared to intact m-calpain ([1]; SLY-MCA digestion): 35 fold
